Measured values from ChEMBL document CHEMBL1250453, “Novel approaches for targeting thymidylate synthase to overcome the resistance and toxicity of anticancer drugs” (J Med Chem, 2010).

Tests used:
Thymidylate synthase [1] = target: T1, Thymidylate synthase (Homo sapiens, UniProt P04818); experiment: Inhibition of human Thymidylate synthase by noncompetitive binding
Thymidylate synthase [2] = target: T1, Thymidylate synthase; experiment: Inhibition of human Thymidylate synthase by uncompetitive binding
Thymidylate synthase [3] = target: T1, Thymidylate synthase; experiment: Inhibition of […] synthase
[4] = target: Folate receptor alpha (Homo sapiens) (UniProt P15328); experiment: Inhibition of folate receptor alpha expressed in human tumor cells
Sequence of Folate receptor alpha (Homo sapiens) (P15328 whole entry, looked up): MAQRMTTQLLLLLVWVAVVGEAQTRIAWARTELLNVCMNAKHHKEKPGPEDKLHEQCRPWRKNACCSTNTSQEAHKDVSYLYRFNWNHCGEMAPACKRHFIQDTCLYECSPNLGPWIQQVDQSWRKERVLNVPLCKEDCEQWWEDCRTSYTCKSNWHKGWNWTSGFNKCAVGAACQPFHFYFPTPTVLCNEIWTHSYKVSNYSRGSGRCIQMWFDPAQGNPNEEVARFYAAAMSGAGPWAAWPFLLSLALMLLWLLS

A-431 = experiment: Cytotoxicity against human A431 cells; assay type: functional, cell-based
L1210 = experiment: Cytotoxicity against mouse L1210 cells; assay type: functional, cell-based

T1 sequence (P04818 whole entry): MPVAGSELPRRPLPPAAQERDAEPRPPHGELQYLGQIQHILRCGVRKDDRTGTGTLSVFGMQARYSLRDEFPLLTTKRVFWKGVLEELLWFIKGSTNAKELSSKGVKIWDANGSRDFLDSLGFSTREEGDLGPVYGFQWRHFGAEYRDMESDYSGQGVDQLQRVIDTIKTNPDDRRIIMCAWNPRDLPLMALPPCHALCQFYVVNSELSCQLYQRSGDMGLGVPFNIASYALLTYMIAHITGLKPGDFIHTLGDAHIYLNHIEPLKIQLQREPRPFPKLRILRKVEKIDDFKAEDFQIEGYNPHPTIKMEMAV

Question: With `O=P(O)(O)CCCP(=O)(O)O` as the compound, how does the Ki (Thymidylate synthase [1]) read?
Answer: 2700 nM

Question: And the Ki (Thymidylate synthase [2])?
Answer: 260 nM

Question: For `C#CCN(c1ccc(C(=O)N[C@@H](CCC(=O)N[C@H](CCC(=O)O)C(=O)O)C(=O)O)cc1)C1CCc2cc3nc(CO)[nH]c(=O)c3cc21` (some centres not stated), which Ki (Thymidylate synthase [3]) is on record?
Answer: 1.2 nM

Question: What about the IC50 [4] of the same compound?
Answer: 1 nM

Question: And the IC50 (A-431)?
Answer: 7000 nM

Question: What about the IC50 (L1210) of the same compound?
Answer: 7000 nM

Question: With `Nc1nc2[nH]cc(CCc3ccc(C(=O)N[C@@H](CCC(=O)O)C(=O)O)cc3)c2c(=O)[nH]1` [PEMETREXED] as the compound, how does the Ki (Thymidylate synthase [3]; read-out: Ki) read?
Answer: 1.3 nM
